Data on 2 compounds can be found in US8206983B2, “In vitro methods for the induction and maintenance of plant cell lines as single suspension cells with intact cell walls” (Dow AgroSciences, LLC., priority 2006, dated 2012).

One data set deals with Tobacco BY2 suspension. Description: BY2 single cell production with diphenylpyrazole. The data set is classed as cell-based. As for the experimental part:
Production of GFP expressing single cells. Single cells were produced by adding 1 uM concentration of the compound DDP (diphenylpyrazole) during the initiation of the 7 d culture cycle in the LSBY2-Gly-B15 medium along with the addition of 0.5 ml Pack Cell Volume (PCV) of GFP expressing suspension aggregates at the stationary phase. Alternately, a 25-ml of suspension aggregates were transferred to a 25-ml of fresh LSBY2-Gly-B15 suspension medium by adding 50 ul of […] diphenylpyrazole stock solution dissolved in DMSO to provide a 1 uM final concentration in the suspension. Thus single cells could be produced in a much shorter cycle of only 3.5 days. The LSBY215 medium always contain 15 mg/l glufosinate ammonium for selection
Initiation of single cells in preparation for plastid transformation. Four milliliters of Tobacco BY2 suspension (at the stationary phase growth maintained on a 7-d cycle) was added to 26 mL of fresh medium that composed of either Medium A [LS salts (PhytoTechnology Laboratories, L689), 120 g/L sucrose, 1 mg/L nicotinic acid, 1 mg/L pyridoxine HCl, 10 mg/L thiamine HCl, and 20 nM diphenylpyrazole (DPP)] or Medium B [LS salts, 120 g/L sucrose, 1 mg/L nicotinic acid, 1 mg/L pyridoxine HCl, 10 mg/L thiamine HCl, 2.5 mg/L benzylaminopurine (BAP) and 20 nM DPP] contained in a 125 mL shake flask with a foam stopper. […]

A further data set deals with BY2 suspension cells. Description: Effects of colchicine on growth and cell separation of BY2 suspension cells. The data set is classed as cell-based, tobacco. The text has this:
BY2 suspension-cultured cells were obtained from Japan tobacco and maintained in LSBY2 medium in a 7 day cycle. Jimsonweed suspension and Pettite Havana tobacco suspensions were initiated from callus initiated at DAS and Xanthi suspensions were procured as a sample from Professor Jack Widholm from UIUC, IL. JT-NT1 suspension cells, obtained from Washington University that are maintained in NT1B medium in 7 day cycle were used only for the pectin degradation enzyme study to separate the cells into single cells. The cells were cultured in shake flasks at 25-28° C. in dark on orbital shakers at 150 rpm. […] Stock concentrations of both the tubulin polymerization inhibitors used in this investigation were dissolved in DMSO to prepare a 0.5 M stock solution. The concentration tested for the pectinase and pectolyase enzymes were in the range of 0.0005% to 0.005%. The tobacco suspension cell lines NT-1 and BY-2, for example, are suitable for the practice of the present invention. BY-2 cells are commercially available and are available according to Nagata et al, for example (Nagata, T., Nemoto, Y., and Hasezawa, S. [1992], Tobacco BY-2 cell line as the “HeLa” cell in the cell biology of higher plants. Int. Rev. Cytol. 132: 1-30). NT-1 cells were originally developed from Nicotiana tabacum L. cv. bright yellow 2. The NT-1 cell line is widely used and readily available; though, any tobacco suspension cell line is consistent with the practice of the invention. It is worth noting that the origins of the NT-1 cell line are unclear. Moreover, the cell line appears variable and is prone to change in response to culture conditions. NT-1 cells suitable for use in the examples below are available from the American Type Culture Collection under accession number ATCC No. 74840. See also U.S. Pat. No. 6,140,075.
Cell expansion and separation were observed by light microscopy (with Nomarski and dark field optics). Spherical cells and single cells were counted by using a hemacytometer to determine the degree of cell expansion and separation, respectively. Cell numbers in aggregates were determined by treating with 5% (wt/vol) chromium trioxide for 16 hr and counting cells (Henshaw et. al, 1966). Cell viability was determined by staining cells (Yokoyama et. al, 1997) with fluorescein diacetate (FDA) and propidium iodide (PI) using a fluorescent microscope (Zeiss Photomicroscope). In order to determine the presence of the cell wall in this single cell cultures optical brightener was used. Calcafluor obtained from Sigma, which is a specific fluorescent dye for cellulose is used in this study, and the cellulose-Calcafluor complexing was observed by fluorescence microscopy (Zeiss Photomicroscope). […]

In data set [1] the test system is Xanthi tobacco suspension. Nature of the data set: Single cell induction by colchicine in Xanthi suspension. The data set is classed as cell-based. The text has this:
BY2 suspension-cultured cells were obtained from Japan tobacco and maintained in LSBY2 medium in a 7 day cycle. Jimsonweed suspension and Pettite Havana tobacco suspensions were initiated from callus initiated at DAS and Xanthi suspensions were procured as a sample from Professor Jack Widholm from UIUC, IL. JT-NT1 suspension cells, obtained from Washington University that are maintained in NT1B medium in 7 day cycle were used only for the pectin degradation enzyme study to separate the cells into single cells. The cells were cultured in shake flasks at 25-28° C. in dark on orbital shakers at 150 rpm. […] The NT-1 cell line is widely used and readily available; though, any tobacco suspension cell line is consistent with the practice of the invention. […]
Cell expansion and separation were observed by light microscopy (with Nomarski and dark field optics). Spherical cells and single cells were counted by using a hemacytometer to determine the degree of cell expansion and separation, respectively. Cell numbers in aggregates were determined by treating with 5% (wt/vol) chromium trioxide for 16 hr and counting cells (Henshaw et. al, 1966). Cell viability was determined by staining cells (Yokoyama et. al, 1997) with fluorescein diacetate (FDA) and propidium iodide (PI) using a fluorescent microscope (Zeiss Photomicroscope). […]

The test system of the next data set is Eragrostis curvula. The following applies: seeds treated with 0.05% colchicine, tetraploids; cited from earlier work.
The next data set concerns maize suspension. Nature of the data set: Single cell production from chlorophyllous maize cell cultures. The data set is classed as cell-based. An excerpt:
The maize photoautotrophi cultures were initiated and maintained in 7 day culture cycles (Jayakumar et. al. 2005). […] The maize suspension units are tightly packed into hard cell aggregates when compared to the dicot cells analyzed.

Each structure is given as a SMILES string.

As for `CCOC(=O)COc1nn(-c2ccccc2)c(-c2ccccc2)c1Cl` [DAS-PMTI-1], the single cell production entry in the data set with Tobacco BY2 suspension (20 nM, Medium A and Medium B, 7 days) is given as “produced single cells”. The “cells with single nucleus with one or two nucleoli” value with Tobacco BY2 suspension (1 uM, 3.5 days of culture, LSBY2 Glycerol medium) is on record as 90%.

For `COc1cc2c(c(OC)c1OC)-c1ccc(OC)c(=O)cc1[C@@H](NC(C)=O)CC2` [Colchicine], in the data set with BY2 suspension cells (1 mM, 7 days), the single suspension cells result is listed as “high degree of single suspension cells”. The “amount of cells compared with control cultures” value in the data set on BY2 suspension cells (1 mM, after 7 days) was “about equal amounts”. For the same compound, the “suspension cells seen as single intact cells” value in the data set with BY2 suspension cells (7 days in 1 mM, then sub-cultured to colchicine-free medium) is listed as ~90%. Also, the “cell viability (FDA and PI)” value in the data set on BY2 suspension cells (BY2-Variant, 1 mM, 7 d) is listed as “high viability”. Also, the single cell release result is given as “partial release of single cells” in data set [1] (0.5 mM, 7 d) and “Separated single cells” in data set [1] (1 mM). For the same compound, the polymorphic percentage with Eragrostis curvula is given as 1.09%. Further, the “concentration at which active in releasing single cells” value with maize suspension is listed as “above 0.5 mM”.
